From PMC8092912 (Antimicrobial Agents and Chemotherapy, 2021)
Read-outs that look alike come from different tables or passages of the source.

Assays:
[1] = target: T1, G140S+Q148H mutant HIV-1 IN-DNA complexes (Human immunodeficiency virus type 1 group M subtype B, UniProt P04585, G1287S/Q1295H); settings: values in square brackets; cited from earlier work
[2] = target: T2, WT HIV-1 IN-DNA complexes (Human immunodeficiency virus type 1 group M subtype B, UniProt P04585); settings: cited from earlier work
[3] = target: T1, G140S+Q148H mutant HIV-1 IN-DNA complexes; settings: for Apparent t1/2, G140S+Q148H: 37°C, single exponential decay
Experimental: (§1) Data sets were analyzed using a single exponential decay equation as previously published for INSTIs ([3]).

[4] = test system: G140S+Q148H mutant HIV-1 IN-DNA complexes
Experimental: as §1

[5] = target: T2, WT HIV-1 IN-DNA complexes
Experimental: as §1

HIV-1 G140S+Q148H = test: Antiviral activity against G140S+Q148H HIV-1 in the MT-2 cell line; assay type: cell-based; settings: for EC50: Human immunodeficiency virus 1, MT2; for Fold change of EC50, G140S+Q148H (reduced susceptibility): versus WT
HIV-1 strain NL4.3 WT = test: Drug washout, viral replication (RT activity in culture supernatant) of WT virus in MT-2 cells; assay type: cell-based; settings: for Time WT viral replication remained inhibited after washout: drug at 20 times IC90, washout 3 days postinfection; for WT viral replication after washout: drug at 20 times IC90, 4 days after washout
Experimental: (§2) We then washed away the inhibitors 3 days postinfection and quantified the reverse transcriptase activity in the culture supernatant to evaluate viral growth as described on washout days 0, 4, and 8 ([10], [11]). […] Longer experiments would be required to further differentiate BIC and DTG in washout experiments using WT virus.
(§3) Replication was assessed by measuring RT activity in culture supernatant without and after drug washout. Bar graphs, mean ± SEM. Statistical significance of drug washout with drug control conditions were assessed by adjusted P value with Tukey’s test: *, <0.05; ***, <0.001; and ****, <0.0001. For the washout experiments, BIC and EVG were synthesized at Gilead Sciences, Inc., DTG was purchased from Toronto Research Chemicals (ON, Canada), and RAL was provided by Merck, Inc.

HIV-1 WT = test: Antiviral activity against WT HIV-1 in the MT-2 cell line; assay type: cell-based; settings: Human immunodeficiency virus 1, MT2
From the text: TABLE 1 Structure and antiviral activity of INSTIs in the MT-2 cell line | column: Antiviral activity against HIV-1, EC50 (nM)^b (fold change) / WT

[6] = test system: HIV-1 strain NL4.3 G140S+Q148H; test: Drug washout, viral replication (RT activity in culture supernatant) of G140S+Q148H virus in MT-2 cells; assay type: cell-based; settings: for G140S+Q148H viral replication under constant drug pressure: drug at 20 times IC90, no washout
Experimental: as §2, §3
The G140S+Q148H mutations cause varied degrees of resistance to INSTIs.

SMILES | Apparent t1/2, G140S+Q148H [1] | koff, G140S+Q148H [1] | Apparent t1/2, G140S+Q148H [3] [h] | Apparent t1/2, G140S+Q148H, fold change vs WT [4] [fold] | koff, G140S+Q148H, fold change vs WT [4] [fold] | Apparent t1/2, WT ([5]; 37°C, single exponential decay) [h] | koff, WT ([5]; 37°C, single exponential decay) | EC50 (HIV-1 G140S+Q148H) [nM] | Fold change of EC50, G140S+Q148H (reduced susceptibility) (HIV-1 G140S+Q148H) [fold] | Time WT viral replication remained inhibited after washout (HIV-1 strain NL4.3 WT) | EC50 (HIV-1 WT) [nM] | G140S+Q148H viral replication under constant drug pressure [6] | WT viral replication after washout (HIV-1 strain NL4.3 WT) | other results
C[C@@H]1CCO[C@H]2Cn3cc(C(=O)NCc4ccc(F)cc4F)c(=O)c(O)c3C(=O)N12 [DTG, dolutegravir] | 3.3 h | 58 ± 8 s^−1 (×10^−6) | 1.9 ± 0.2 | 51 | 0.02 | 96 ± 29 | 2.2 ± 0.7 s^−1 (×10^−6) | 6.5 ± 1.2 | 4.3 | at least 8 days | 1.5 ± 0.2 | low replication | – | Apparent t1/2, WT ([2]; values in square brackets): 71 h; koff, WT ([2]; values in square brackets): 2.7 ± 0.4 s^−1 (×10^−6); G140S+Q148H viral replication after washout ([6]; drug at 20 times IC90, 4 and 8 days after washout): significant viral replication
O=C(NCc1c(F)cc(F)cc1F)c1cn2c(c(O)c1=O)C(=O)N1[C@H]3CC[C@H](C3)O[C@@H]1C2 [BIC, bictegravir] | – | – | 5.7 ± 0.4 | – | – | – | – | 3.1 ± 0.8 | – | at least 8 days | 1.5 ± 0.2 | very low levels of replication | – | Suppression of the G140S+Q148H virus after washout ([6]; drug at 20 times IC90, after 8 days of washout): > 80%
O=C(NCc1c(F)cc(F)cc1F)c1cn2c(c(O)c1=O)C(=O)N1[C@@H]3CC[C@@H](C3)O[C@H]1C2 [Compound 2] | – | – | 1.7 ± 0.2 | – | – | – | – | 11.1 ± 0.5 | – | – | 1.5 ± 0.5 | – | – | –
COc1cc2c(cc1Cc1cccc(Cl)c1F)c(=O)c(C(=O)O)cn2[C@H](CO)C(C)C [EVG, elvitegravir] | – | – | – | – | – | – | – | 868 ± 138 | – | – | 2.1 ± 0.9 | – | detectable viral replication | –
Cc1nnc(C(=O)NC(C)(C)c2nc(C(=O)NCc3ccc(F)cc3)c(O)c(=O)n2C)o1 [RAL, raltegravir] | ND [0.2] h | ND [1,130] s^−1 (×10^−6) | – | – | – | – | – | 2460 | – | – | 9.4 ± 1.4 | – | detectable viral replication | Apparent t1/2, WT [2]: 10 ± 2 [8.8] h; koff, WT [2]: 21 ± 6 [22 ± 2]; Binding to G140S+Q148H IN-DNA complexes for determination of dissociation kinetics [3]: insufficient level of binding; koff, WT [5]: 21 ± 6 [22 ± 2]; Apparent t1/2, WT ([5]; recombinant enzyme): 10 ± 2 [8.8] h
O=C(NCc1ccc(F)cc1F)c1cn2c(c(O)c1=O)C(=O)N1[C@H]3CC[C@H](C3)O[C@@H]1C2 [Compound 1] | – | – | 4.8 ± 0.2 | 32 | 0.03 | 155 ± 25 | 1.3 ± 0.2 s^−1 (×10^−6) | 4.5 ± 1.8 | 3.2 | – | 1.4 ± 0.5 | – | – | –
